In US20250188092A1, “RIFAMYCIN ANALOGS” (THE REGENTS OF THE UNIVERSITY OF MICHIGAN, priority 2021, published 2025):
Like-named read-outs stand apart in the source and are kept apart here.

Tested on: non-replicating cultures of M. tuberculosis H37Rv transformed with lux ABCDE
Assay: microbe, parasite or virus in culture
Type: cell-based, Mycobacterium tuberculosis
Details: for MIC90 / MIC: ≥90% reduction in luminescence, read-out: MIC90 LORA; for MIC90 LORA/MABA: ratio of LORA MIC90 to MABA MIC90
[1] = Mycobacterium tuberculosis, H37RV

SMILES | MIC90 LORA Rel to RMP | MIC90 [1] [µM] | MIC90 LORA/MABA | MIC [1] [µM] | MIC90 [µM]
CO[C@H]1/C=C/O[C@@]2(C)Oc3c(C)c(O)c4c(=O)c(c5oc6cc(N7CCN(C(=O)c8cccc(-n9ccnc9)c8)CC7)cc(C)c6nc-5c4c3C2=O)NC(=O)/C(C)=C\C=C\[C@H](C)[C@H](O)[C@@H](C)[C@@H](O)[C@@H](C)[C@H](OC(C)=O)[C@@H]1C [Compound 29a, (7S,9E,11S,12R,13S,14R,15R,16R,17S,18S,19E,21Z)-2,15,17-Trihydroxy-30-{4-[3-(1H-imidazol-1-yl)benzoyl]piperazin-1-yl}-11-methoxy-3,7,12,14,16,18,22,32-octamethyl-6,23,37-trioxo-8,27,38-trioxa-24,34-diazahexacyclo[23.11.1.1^4,7.0^5,36.0^26,35.0^28,33]octatriaconta-1(36)2,4,9,19,21,25,28,30,32,34-undecaen-13-yl acetate] | 0.61 | 0.126 | 3.5 |  | 
CO[C@H]1/C=C/O[C@@]2(C)Oc3c(C)c(O)c4c(=O)c(c5oc6cc(N7CCN(CC(C)C)CC7)cc(OCCCCN7CCN(CCn8ccnc8)CC7)c6nc-5c4c3C2=O)NC(=O)/C(C)=C\C=C\[C@H](C)[C@H](O)[C@@H](C)[C@@H](O)[C@@H](C)[C@H](OC(C)=O)[C@@H]1C [Compound 6b, (7S,9E,11S,12R,13S,14R,15R,16R,17S,18S,19E,21Z)-2,15,17-trihydroxy-32-(4-{4-[2-(1H-imidazol-1-yl)ethyl]piperazin-1-yl}butoxy)-11-methoxy-3,7,12,14,16,18,22-heptamethyl-30-[4-(2-methylpropyl)piperazin-1-yl]-6,23,37-trioxo-8,27,38-trioxa-24,34-diazahexacyclo[23.11.1.1^4,7.0^5,36.0^26,35.0^28,33]octatriaconta-1(36)2,4,9,19,21,25,28(33)29,31,34-undecaen-13-yl acetate] | 0.05 |  | 2.4 | 0.05 | 
CO[C@H]1/C=C/O[C@@]2(C)Oc3c(C)c(O)c4c(=O)c(c5oc6cc(C)cc(N7CCN(C)CC7)c6nc-5c4c3C2=O)NC(=O)/C(C)=C\C=C\[C@H](C)[C@H](O)[C@@H](C)[C@@H](O)[C@@H](C)[C@H](OC(C)=O)[C@@H]1C [Compound 30a, (7S,9E,11S,12R,13S,14R,15R,16R,17S,18S,19E,21Z)-2,15,17-Trihydroxy-11-methoxy-3,7,12,14,16,18,22,30-octamethyl-32-(4-methylpiperazin-1-yl)-6,23,37-trioxo-8,27,38-trioxa-24,34-diazahexacyclo[23.11.1.1^4,7.0^5,36.0^26,35.0^28,33]octatriaconta-1(36)2,4,9,19,21,25,28,30,32,34-undecaen-13-yl acetate] | <0.06 |  |  |  | <0.016
CO[C@H]1/C=C/O[C@@]2(C)Oc3c(C)c(O)c4c(=O)c(c5oc6cccc(OCc7ccc(CN8CCN(C(=O)Cn9ccnc9)CC8)cc7)c6nc-5c4c3C2=O)NC(=O)/C(C)=C\C=C\[C@H](C)[C@H](O)[C@@H](C)[C@@H](O)[C@@H](C)[C@H](OC(C)=O)[C@@H]1C [Compound 16b, (7S,9E,11S,12R,13S,14R,15R,16R,17S,18S,19E,21Z)-2,15,17-Trihydroxy-32-{[4-({4-[2-(1H-imidazol-1-yl)acetyl]piperazin-1-yl}methyl)phenyl]methoxy}-11-methoxy-3,7,12,14,16,18,22-heptamethyl-6,23,37-trioxo-8,27,38-trioxa-24,34-diazahexacyclo[23.11.1.1^4,7.0^5,36.0^26,35.0^28,33]octatriaconta-1(36)2,4,9,19,21,25,28,30,32,34-undecaen-13-yl acetate] | 0.93 |  | 2.0 | 0.057 | 
CO[C@H]1/C=C/O[C@@]2(C)Oc3c(C)c(O)c4c(=O)c(c5oc6cc(C=O)cc(N7CCN(C)CC7)c6nc-5c4c3C2=O)NC(=O)/C(C)=C\C=C\[C@H](C)[C@H](O)[C@@H](C)[C@@H](O)[C@@H](C)[C@H](OC(C)=O)[C@@H]1C [Compound 30b, (7S,9E,11S,12R,13S,14R,15R,16R,17S,18S,19E,21Z)-30-Formyl-2,15,17-trihydroxy-11-methoxy-3,7,12,14,16,18,22-heptamethyl-32-(4-methylpiperazin-1-yl)-6,23,37-trioxo-8,27,38-trioxa-24,34-diazahexacyclo[23.11.1.1^4,7.0^5,36.0^26,35.0^28,33]octatriaconta-1(36)2,4,9,19,21,25,28,30,32,34-undecaen-13-yl acetate] | 0.44 |  | 3.1 |  | 0.114
CO[C@H]1/C=C/O[C@@]2(C)Oc3c(C)c(O)c4c(=O)c(c5oc6cccc(OCCCCN7CCN(C)CC7)c6nc-5c4c3C2=O)NC(=O)/C(C)=C\C=C\[C@H](C)[C@H](O)[C@@H](C)[C@@H](O)[C@@H](C)[C@H](OC(C)=O)[C@@H]1C [Compound 5a, (7S,9E,11S,12R,13S,14R,15R,16R,17S,18S,19E,21Z)-2,15,17-Trihydroxy-11-methoxy-3,7,12,14,16,18,22-heptamethyl-32-[4-(4-methylpiperazin-1-yl)butoxy]-6,23,37-trioxo-8,27,38-trioxa-24,34-diazahexacyclo[23.11.1.1^4,7.0^5,36.0^26,35.0^28,33]octatriaconta-1(36)2,4,9,19,21,25,28(33)29,31,34-undecaen-13-yl acetate] | 0.57 |  | 2.0 | 0.186 | 
CO[C@H]1/C=C/O[C@@]2(C)Oc3c(C)c(O)c4c(=O)c(c5oc6cc(N7CCN(CC(C)C)CC7)cc(OCc7ccc(CN8CCNCC8)cc7)c6nc-5c4c3C2=O)NC(=O)/C(C)=C\C=C\[C@H](C)[C@H](O)[C@@H](C)[C@@H](O)[C@@H](C)[C@H](OC(C)=O)[C@@H]1C [Compound 17b, (7S,9E,11S,12R,13S,14R,15R,16R,17S,18S,19E,21Z)-2,15,17-Trihydroxy-11-methoxy-3,7,12,14,16,18,22-heptamethyl-30-[4-(2-methylpropyl)piperazin-1-yl]-6,23,37-trioxo-32-({4-[(piperazin-1-yl)methyl]phenyl}methoxy)-8,27,38-trioxa-24,34-diazahexacyclo[23.11.1.1^4,7.0^5,36.0^26,35.0^28,33]octatriaconta-1(36)2,4,9,19,21,25,28,30,32,34-undecaen-13-yl acetate] | 1.3 |  |  | < 0.016 | 
CO[C@H]1/C=C/O[C@@]2(C)Oc3c(C)c(O)c4c(=O)c(c5oc6cccc(OCc7cccc(CN8CCN(C(C)=O)CC8)c7)c6nc-5c4c3C2=O)NC(=O)/C(C)=C\C=C\[C@H](C)[C@H](O)[C@@H](C)[C@@H](O)[C@@H](C)[C@H](OC(C)=O)[C@@H]1C [Compound 11c, (7S,9E,11S,12R,13S,14R,15R,16R,17S,18S,19E,21Z)-32-({3-[(4-Acetylpiperazin-1-yl)methyl]phenyl}methoxy)-2,15,17-trihydroxy-11-methoxy-3,7,12,14,16,18,22-heptamethyl-6,23,37-trioxo-8,27,38-trioxa-24,34-diazahexacyclo-[23.11.1.1^4,7.0^5,36.0^26,35.0^28,33]octatriaconta-1(36)2,4,9,19,21,25,28,30,32,34-undecaen-13-yl acetate] | 0.53 | 0.123 | 2.1 |  | 
CO[C@H]1/C=C/O[C@@]2(C)Oc3c(C)c(O)c4c(=O)c(c5oc6cc(N7CCN(CCCO[C@@H]8COc9nc([N+](=O)[O-])cn9C8)CC7)cc(C)c6nc-5c4c3C2=O)NC(=O)/C(C)=C\C=C\[C@H](C)[C@H](O)[C@@H](C)[C@@H](O)[C@@H](C)[C@H](OC(C)=O)[C@@H]1C [Compound 29d, (7S,9E,11S,12R,13S,14R,15R,16R,17S,18S,19E,21Z)-2,15,17-Trihydroxy-11-methoxy-3,7,12,14,16,18,22,32-octamethyl-30-[4-(3-{[(6S)-2-nitro-5H,6H,7H-imidazo[2,1-b][1,3]oxazin-6-yl]oxy}propyl)piperazin-1-yl]-6,23,37-trioxo-8,27,38-trioxa-24,34-diazahexacyclo[23.11.1.1^4,7.0^5,36.0^26,35.0^28,33]octatriaconta-1(36)2,4,9,19,21,25,28,30,32,34-undecaen-13-yl acetate] | 0.20 | 0.053 | 1.4 |  | 
CO[C@H]1/C=C/O[C@@]2(C)Oc3c(C)c(O)c4c(=O)c(c5oc6cc(N7CCN(CC(C)C)CC7)cc(OCc7ccc(CN8CCN(C(=O)CN9CCOCC9)CC8)cc7)c6nc-5c4c3C2=O)NC(=O)/C(C)=C\C=C\[C@H](C)[C@H](O)[C@@H](C)[C@@H](O)[C@@H](C)[C@H](OC(C)=O)[C@@H]1C [Compound 17d, (7S,9E,11S,12R,13S,14R,15R,16R,17S,18S,19E,21Z)-2,15,17-Trihydroxy-11-methoxy-3,7,12,14,16,18,22-heptamethyl-30-[4-(2-methylpropyl)piperazin-1-yl]-32-{[4-({4-[2-(morpholin-4-yl)acetyl]piperazin-1-yl}methyl)phenyl]methoxy}-6,23,37-trioxo-8,27,38-trioxa-24,34-diazahexacyclo[23.11.1.1^4,7.0^5,36.0^26,35.0^28,33]octatriaconta-1(36)2,4,9,19,21,25,28,30,32,34-undecaen-13-yl acetate] |  | < 0.016 |  |  | 
CO[C@H]1/C=C/O[C@@]2(C)Oc3c(C)c(O)c4c(=O)c(c5oc6cc(C)cc(N7CCN(CC(C)C)CC7)c6nc-5c4c3C2=O)NC(=O)/C(C)=C\C=C\[C@H](C)[C@H](O)[C@@H](C)[C@@H](O)[C@@H](C)[C@H](OC(C)=O)[C@@H]1C [Compound 30c, (7S,9E,11S,12R,13S,14R,15R,16R,17S,18S,19E,21Z)-2,15,17-Trihydroxy-11-methoxy-3,7,12,14,16,18,22,30-octamethyl-32-[4-(2-methylpropyl)piperazin-1-yl]-6,23,37-trioxo-8,27,38-trioxa-24,34-diazahexacyclo[23.11.1.1^4,7.0^5,36.0^26,35.0^28,33]octatriaconta-1(36)2,4,9,19,21,25,28,30,32,34-undecaen-13-yl acetate] | <0.06 | < 0.016 |  |  | 
